Source: patent US6333422A, “Thermosensitive cyclotriphosphazene-platinum complex conjugate, its preparation method and anticancer agent containing the same” (Korea Institute of Science and Technology, priority 2000, dated 2001)

Key:
[1] = system: mouse leukemia L1210 cell line; assay: In vitro cell growth inhibition of mouse leukemia L1210 cells (trypan blue dye exclusion); type: cell-based; conditions: viable cell number after 24, 48 and 72 hours, read-out: ED50 (concentration exhibiting 50% of cell growth inhibition)
Method: 1. Determination of in vitro activity
(§1) (2) Cancer cell line: mouse leukemia L1210 cell line
After adding the samples each serially diluted by logarithmic dose to the cells, cells were cultured in an incubator at 37° C. and under 5% CO2 atmosphere.
The viable cell number was determined after 24, 48 and 72 hours by using trypan blue dye exclusion test.

[2] = M. J. Cleare, Biochimie 60, 835 (1978); cited from earlier work
[3] = system: mouse leukemia L1210 cell line; assay: In vivo (i.p.) activity: survival of BDF1 mice implanted i.p. with leukemia L1210 cells
Method: 2. Determination of in vivo (i.p.) activity
(1) Samples: Example 2, Example 6, Example 7 and Example 11
as §1
(3) Experimental method: The leukemia L1210 cells(1×10^5 cells/0.1 ml) obtained from DBA/2 donor mice were injected intraperitoneally to the BDF1 mice (6-8 weeks old, 8 mice per group). The samples were either dissolved in PBS solution or suspended in 0.5% Tween 80 depending on their solubility. These sample solutions were administered via intraperitoneal injection once a day for 5 consecutive days or at day 1, 5, and 9 after the cancer cell implantation at variable dosages. The survival rate was determined by observing the mice each day. By comparing with the average survival time of the control group (where no chemical treatment was performed), the percent average increase in the survival time(T/C, %) was calculated to determine the anticancer activity.

[4] = Lower critical solution temperature (LCST, cloud point) by UV/VIS spectrophotometer; type: physicochemical
Text: Thermosensitive polymers in the present invention refer to the polymers that can be solubilized in water at low temperatures but precipitates above a certain critical temperature due to the rapid decrease of their water-solubility. When such a phase transition is reversible, the phase transition temperature is called a lower critical solution temperature(LCST) or a cloud point. Below LCST, the hydrogen bonding between the polymer-water molecules is stronger than the hydrophobic interaction between the polymer-polymer molecules. As the temperature increases, however, the hydrogen bonding between the polymer-water molecules weakens whereas the hydrophobic interaction between the polymer-polymer molecules increases resulting in the precipitation of polymers in aqueous solution.
Elemental analysis of carbon, hydrogen, nitrogen in the compounds of the present invention was performed in the Special Analysis Center at KIST by using carbon, hydrogen and nitrogen analyzer (Perkin Elmer), and phosphorous and platinum analysis was performed using Polyscan 61E ICP. Hydrogen and phosphorous nuclear magnetic resonance spectra were obtained using Varian to Gemini-300, and LCST was measured by using Perkin-Elmer Lamda 18 UV/VIS spectrophotometer.

| Compound | IC50 [1] [µM] | Lower critical solution temperatures [4] | also measured |
| --- | --- | --- | --- |
| N.N.O=C([O-])C1(C(=O)[O-])CCC1.[Pt+2] [Carboplatin, reference compound] | 5.9 |  | LD50 [2]: 180 mg/kg; T/C (survival time vs control) ([3]; dose 40 mgkg^-1): 168.0% |
| N.N.[Cl][Pt][Cl] [Cisplatin, reference compound] | 0.7 |  | T/C (survival time vs control) ([3]; dose 4 mgkg^-1): 163.0% |
| {NP[(OCH2 CH2)2 OC2 H5 ][L-Asp.Pt(dach)]}3 [Example 7] | 0.4 | 42.0 °C | T/C (survival time vs control) ([3]; dose 40 mgkg^-1): 200.8%; T/C (survival time vs control) ([3]; dose 60 mgkg^-1): 226.7%; T/C (survival time vs control) ([3]; dose 80 mgkg^-1): > 271.7% |
| {NP[(OCH2 CH2)2 OC2 H5 ][L-Asp.Pt(dmach)]}3 [Example 8] |  | 35.0 °C |  |
| {NP[(OCH2 CH2)2 OC2 H5 ][L-Asp.Pt(dmpda)]}3 [Example 6] |  | 46.5 °C | T/C (survival time vs control) ([3]; dose 30 mgkg^-1): 146.1%; T/C (survival time vs control) ([3]; dose 60 mgkg^-1): 162.0% |
| {NP[(OCH2 CH2)2 OC2 H5 ][L-Mal.Pt(dach)]}3 [Example 5] |  | 39.0 °C |  |
| {NP[(OCH2 CH2)2 OC3 H7 ][L-Asp.Pt(dach)]}3 [Example 9] |  | 22.0 °C |  |
| {NP[(OCH2 CH2)2 OC4 H9 ][L-Asp.Pt(dach)]}3 [Example 10] |  | 12.0 °C |  |
| {NP[(OCH2 CH2)2 OCH3 ][L-Asp.Pt(dach)]}3 [Example 2] | 0.4 | 92.0 °C | T/C (survival time vs control) ([3]; dose 30 mgkg^-1): 217.3%; T/C (survival time vs control) ([3]; dose 60 mgkg^-1): > 293.8%; T/C (survival time vs control) ([3]; dose 90 mgkg^-1): > 511.0% |
| {NP[(OCH2 CH2)2 OCH3 ][L-Asp.Pt(dmach)]}3 [Example 3] |  | 74.5 °C |  |
| {NP[(OCH2 CH2)2 OCH3 ][L-Asp.Pt(dmpda]}3 [Example 1] |  | 98.0 °C |  |
| {NP[(OCH2 CH2)2 OCH3 ][L-Glu.Pt(dach)]}3 [Example 4] |  | 82.0 °C |  |
| {NP[(OCH2 CH2)7 OCH3 ][L-Asp.Pt(dach)]}3 [Example 11] | 0.2 | 84.0 °C | T/C (survival time vs control) ([3]; dose 30 mgkg^-1): 197.0%; T/C (survival time vs control) ([3]; dose 60 mgkg^-1): 229.2%; T/C (survival time vs control) ([3]; dose 90 mgkg^-1): 204.2% |
| {NP[(OCH2 CH2)12 OCH3 ][L-Asp.Pt(dach)]}3 [Example 12] |  | above 100 °C |  |
